The target of assay [1] is Sigma non-opioid intracellular receptor 1 (Cavia porcellus) (UniProt Q60492). As to the kind of experiment: Binding affinity against sigma-1 receptor in guinea pig brain using [3H](+)-pentazocine as radioligand.
For assay [2] the target is unchanged. As to the kind of experiment: Binding affinity against sigma-1 receptor in guinea pig brain using [3H](+)-pentazocine as radioligand.

Sequence of Sigma non-opioid intracellular receptor 1 (Cavia porcellus) (Q60492 whole entry, looked up): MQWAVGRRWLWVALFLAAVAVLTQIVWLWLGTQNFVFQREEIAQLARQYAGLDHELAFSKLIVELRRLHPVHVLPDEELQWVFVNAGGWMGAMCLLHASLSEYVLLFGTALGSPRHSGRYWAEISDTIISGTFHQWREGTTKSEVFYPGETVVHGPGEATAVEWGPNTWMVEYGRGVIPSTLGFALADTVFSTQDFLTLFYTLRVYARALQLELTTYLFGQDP

As for `O=C(NC1CCN(Cc2ccccc2)CC1)c1ccccc1I` [N-(1-Benzyl-piperidin-4-yl)-2-iodo-benzamide], in assay [1], the affinity, expressed as Ki, was 1.64 nM. This lies in the single-digit nanomolar range. `O=C(NC1CCN(Cc2ccccc2)CC1)c1cccc(I)c1` [N-(1-Benzyl-piperidin-4-yl)-3-iodo-benzamide]: the Ki (commonly the equilibrium dissociation constant of an inhibitor or competing ligand from its target) in assay [2] was 3.02 nM.

(Values after BindingDB's records for doi:10.1021/jm00038a002 (George Washington University Medical Center, 1994).)
